Assay results from ChEMBL document CHEMBL4196011, “The lead optimization of the polyamine conjugate of flavonoid with a naphthalene motif: Synthesis and biological evaluation” (Eur J Med Chem, 2018).
The source made the active and inactive calls. The calls are words filed in the database; no cut-off is given here.

Tests used:
[1] = system: HepG2; assay: Cytotoxicity in human HepG2 cells assessed as gain in lysosomal mass/pH after 48 hrs by LysoTracker Red dye-based fluorescence assay; assay type: functional, cell-based
[2] = system: HepG2; assay: Induction of apoptosis in human HepG2 cells assessed as necrotic cells at 5 uM after 24 hrs by Annexin V-FITC/propidium iodide staining-based flow cytometry (reference value: 0.12%); assay type: functional
[3] = system: Mus musculus; assay: Toxicity in Kunming mouse xenografted with […] H22 cells assessed as effect on heart weight index at 30 mg/kg, iv administered for 7 consecutive days; assay type: organism-based; settings: in vivo
[4] = system: HepG2; assay: Induction of apoptosis in human HepG2 cells at 5 uM preincubated cells with autophagy inhibitor 3-MA for 2 hrs followed by compound addition measured after 48 hrs by Annexin V-FITC/propidium iodide staining-based flow cytometry relative to control; assay type: functional; set-up: scale not given: the % may be the effect or the level left
[5] = system: HepG2; assay: Induction of apoptosis in human HepG2 cells assessed as necrotic cells at 7.5 uM after 8 hrs by Annexin V-FITC/propidium iodide staining-based flow cytometry (reference value: 0.40%); assay type: functional
[6] = system: HepG2; assay: Induction of apoptosis in human HepG2 cells assessed as early apoptotic cells at 7.5 uM after 36 hrs by Annexin V-FITC/propidium iodide staining-based flow cytometry (reference value: 2.08%); assay type: functional
[7] = system: HepG2; assay: Induction of autophagy in human HepG2 cells assessed as formation of autolysosomes at 2.5 to 7.5 uM preincubated cells with 3-MA for 2 hrs followed by compound addition measured after 48 hrs by MDC staining-based assay; assay type: functional, cell-based
[8] = system: HepG2; assay: Induction of apoptosis in human HepG2 cells assessed as late apoptotic cells at 2.5 uM after 24 hrs by Annexin V-FITC/propidium iodide staining-based flow cytometry (reference value: 0.88%); assay type: functional
[9] = system: HepG2; assay: Induction of apoptosis in human HepG2 cells assessed as viable cells at 7.5 uM after 36 hrs by Annexin V-FITC/propidium iodide staining-based flow cytometry (reference value: 96.6%); assay type: functional; settings: HepG2, 36 h, read-out: Activity
[10] = system: HepG2; assay: Induction of autophagy in human HepG2 cells assessed as increase in LC3-2 expression at 5 uM in presence of autophagy inhibitor 3-MA by Western blot analysis; assay type: functional, cell-based
[11] = system: Mus musculus; assay: Toxicity in Kunming mouse xenografted with […] H22 cells assessed as effect on lung weight index at 30 mg/kg, iv administered for 7 consecutive days; assay type: organism-based; settings: in vivo
[12] = system: HepG2; assay: Induction of apoptosis in human HepG2 cells assessed as viable cells at 7.5 uM after 48 hrs by Annexin V-FITC/propidium iodide staining-based flow cytometry (reference value: 96.67%); assay type: functional; settings: HepG2, 48 h, read-out: Activity
[13] = system: HepG2; assay: Induction of apoptosis in human HepG2 cells assessed as early apoptotic cells at 7.5 uM after 24 hrs by Annexin V-FITC/propidium iodide staining-based flow cytometry (reference value: 2.07%); assay type: functional
[14] = system: HepG2; assay: Induction of apoptosis in human HepG2 cells assessed as late apoptotic cells at 2.5 uM after 48 hrs by Annexin V-FITC/propidium iodide staining-based flow cytometry (reference value: 0.95%); assay type: functional
[15] = system: HepG2; assay: Induction of apoptosis in human HepG2 cells assessed as viable cells at 5 uM after 48 hrs by Annexin V-FITC/propidium iodide staining-based flow cytometry (reference value: 96.67%); assay type: functional; settings: HepG2, 48 h, read-out: Activity
[16] = system: HepG2; assay: Induction of apoptosis in human HepG2 cells assessed as decrease in nuclear volume after 48 hrs by Hoechst 33342 staining-based assay; assay type: functional, cell-based
[17] = system: HepG2; assay: Induction of apoptosis in human HepG2 cells assessed as upregulation of active caspase 9 level after 48 hrs by immunofluorescence staining-based high content screening assay; assay type: functional, cell-based
[18] = system: HeLa; assay: Antiproliferative activity against human HeLa cells after 48 hrs by MTT assay; assay type: functional, cell-based
[19] = system: HepG2; assay: Induction of apoptosis in human HepG2 cells assessed as necrotic cells at 7.5 uM after 24 hrs by Annexin V-FITC/propidium iodide staining-based flow cytometry (reference value: 0.12%); assay type: functional
[20] = system: HepG2; assay: Induction of apoptosis in human HepG2 cells assessed as necrotic cells at 5 uM after 48 hrs by Annexin V-FITC/propidium iodide staining-based flow cytometry (reference value: 0.08%); assay type: functional
[21] = system: HepG2; assay: Induction of apoptosis in human HepG2 cells assessed as increase in Bax protein expression after 48 hrs by immunofluorescence staining-based high content screening assay; assay type: functional, cell-based
[22] = system: HepG2; assay: Induction of apoptosis in human HepG2 cells assessed as necrotic cells at 2.5 uM after 36 hrs by Annexin V-FITC/propidium iodide staining-based flow cytometry (reference value: 0.24%); assay type: functional
[23] = system: HepG2; assay: Induction of apoptosis in human HepG2 cells assessed as viable cells at 5 uM after 8 hrs by Annexin V-FITC/propidium iodide staining-based flow cytometry (reference value: 97.43%); assay type: functional; settings: HepG2, 8 h, read-out: Activity
[24] = target: MAP kinase p38 (Homo sapiens) (UniProt O15264+Q15759+Q16539+P53778); assay: Induction of p38 phosphorylation in human HepG2 cells after 48 hrs by immunofluorescence staining-based high content screening assay; assay type: cell-based
[25] = system: HepG2; assay: Induction of apoptosis in human HepG2 cells assessed as upregulation of active caspase 8 level after 48 hrs by immunofluorescence staining-based high content screening assay; assay type: functional, cell-based
[26] = system: HepG2; assay: Induction of apoptosis in human HepG2 cells assessed as late apoptotic cells at 5 uM after 8 hrs by Annexin V-FITC/propidium iodide staining-based flow cytometry (reference value: 0.88%); assay type: functional
[27] = system: HepG2; assay: Induction of apoptosis in human HepG2 cells assessed as late apoptotic cells at 5 uM after 48 hrs by Annexin V-FITC/propidium iodide staining-based flow cytometry (reference value: 0.95%); assay type: functional
[28] = system: HepG2; assay: Induction of apoptosis in human HepG2 cells assessed as viable cells at 5 uM after 36 hrs by Annexin V-FITC/propidium iodide staining-based flow cytometry (reference value: 96.6%); assay type: functional; settings: HepG2, 36 h, read-out: Activity
[29] = Drug localization in nucleus of human HepG2 cells at 7.5 uM after 8 hrs by Hoechst 33342 staining-based HCS analysis; assay type: ADME, subcellular; settings: hepg2, 8 h
[30] = system: HepG2; assay: Induction of apoptosis in human HepG2 cells assessed as necrotic cells at 5 uM after 8 hrs by Annexin V-FITC/propidium iodide staining-based flow cytometry (reference value: 0.40%); assay type: functional
[31] = system: HepG2; assay: Induction of apoptosis in human HepG2 cells assessed as viable cells at 5 uM after 24 hrs by Annexin V-FITC/propidium iodide staining-based flow cytometry (reference value: 96.97%); assay type: functional; settings: HepG2, 24 h, read-out: Activity
[32] = system: HepG2; assay: Induction of apoptosis in human HepG2 cells assessed as early apoptotic cells at 5 uM after 8 hrs by Annexin V-FITC/propidium iodide staining-based flow cytometry (reference value: 1.29%); assay type: functional
[33] = system: HepG2; assay: Induction of apoptosis in human HepG2 cells assessed as increase in Bid expression levels after 48 hrs by immunofluorescence staining-based high content screening assay; assay type: functional, cell-based
[34] = Drug localization in golgi apparatus of human HepG2 cells at 7.5 uM after 8 hrs by Golgi-Tracker Red dye-based confocal fluorescence microscopic analysis; assay type: ADME, subcellular; settings: hepg2, 8 h
[35] = system: HepG2; assay: Induction of apoptosis in human HepG2 cells assessed as disruption of mitochondrial membrane potential after 48 hrs by Rh123 staining-based fluorescence quenching analysis; assay type: functional, cell-based

COc1ccc2cc(-c3oc4c(CNCCCCN)cccc4c(=O)c3OC)ccc2c1Br.Cl.Cl
Activity [1]: Dose-dependent effect
Activity [2]: 0.05%
Activity [3]: Non-Toxic
Activity [4]: 53.07%
Activity [5]: 0.05%
Activity [6]: 28.78%
Activity [7]: inactive
Activity [8]: 0.88%
viability at 7.5 µM [9]: 64.7%
Activity [10]: inactive
Activity [11]: Non-Toxic
viability at 7.5 µM [12]: 45.6%
Activity [13]: 18.85%
Activity [14]: 3.85%
viability at 5 µM [15]: 60.4%
Activity [16]: Dose-dependent effect
Activity [17]: Dose-dependent effect
IC50 [18]: 5.9 µM
Activity [19]: 4.51%
Activity [20]: 3.39%
Activity [21]: Dose-dependent effect
Activity [22]: 3.9%
viability at 5 µM [23]: 93%
Activity [24]: Dose-dependent effect
Activity [25]: Dose-dependent effect
Activity [26]: 1.91%
Activity [27]: 9.87%
viability at 5 µM [28]: 81%
Drug uptake [29]: Not Active
Activity [30]: 0.03%
viability at 5 µM [31]: 82.2%
Activity [32]: 5.06%
Activity [33]: Dose-dependent effect
Drug uptake [34]: Not Active
Activity [35]: Dose-dependent effect
